Test results reported in PubChem BioAssay AID1963442 (Molecular Pharmacology Branch, DTP, NCI, 2024).

Tested on: MPNST complex spheroid with HUVEC/MSC, growth, % test/control
Experiment: Anticancer human tumor MPNST cell line growth inhibition [Asc];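 note: compounds left on spheroids for seven days before reading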
Conditions: for IC50: curve of first compound; for viability, T/C: stronger effect = lower value
Procedure: Multicellular complex tumor spheroid response to apoptosis pathway targeting inhibitors Alrizomadlin, Pelcitoclax, and Dasminapant in combination with a variety of drugs and investigational agents in selected tumor cell lines
The MDM2 inhibitor alrizomadlin, the Bcl-2/Bcl-xL inhibitor pelcitoclax, and the IAPs inhibitor dasminapant were evaluated both individually and in combination with standard of care and investigational anticancer small molecules within a complex spheroid model of solid tumors. . Complex spheroids include a stromal component modeled by human endothelial cells (HUVEC) and fibroblasts modeled by human mesenchymal stem cells (MSCs). The concentration ranges selected for each drug and investigational agent were based upon clinically achievable concentrations if the clinical Cmax of the agent was known.
Compounds. The drugs and investigational agents: alrizomadlin (APG-115; NSC831270), pelcitoclax (APG-1252; NSC835773), dasminapant (APG-1387;NSC834197), TAK-243 (NSC785004), copanlisib (NSC809693), olaparib (NSC753686), talazoparib (NSC767125), cobimetinib (NSC 768068), eltanexor (KPT-8602, NSC 794443), abemaciclib (NSC 768073), sotorasib (NSC818433), adagrasib (NSC 831453), MRTX-1133 (NSC 836407), Iadademestat (ORY1001, NSC 806812), and RMC-4630 (NSC839698), were obtained from the NCI Developmental Therapeutics Program Chemical Repository. The FDA-approved anticancer drug set is available from the Developmental Therapeutics Program at https://dtp.cancer.gov/organization/dscb/obtaining/available plates.htm. […] The stock solutions were prepared in dimethyl sulfoxide (DMSO, Sigma-Aldrich, St. Louis, MO, cat. D2650) at 800-fold the tested concentration and stored at -70 degrees C prior to their use. All drugs and investigational agents were tested over a range starting from a high concentration at or near the clinical Cmax and decreasing in half-log increments. If the clinical Cmax for an agent had not been determined, the highest concentration tested was 10 microM.
The patient-derived cancer (PDC) cell lines include five colon adenocarcinomas: 186277-243-T-J2-PDC, 616215-338-R-J1-PDC, 439559-082-T-J2-PDC, 463943-066-T-J2-PDC, and 519858-162-T-J1-PDC; three pancreatic carcinomas: 323965-272-R-J2-PDC, 521955-158-R6-J3-PDC, and 521955-158-R2-J5-PDC; two uterine sarcomas: 327498-152-R-J2-PDC and 993429-296-R-J1-PDC; two rhabdomyosarcomas: 755483-174-R-J1-PDC and 772245-204-R-J1-PDC; two soft tissue sarcomas: 126254-015-R-J1-PDC and 494315-158-R-J1-PDC; two malignant fibrous histiocytomas: 317291-083-R-J1-PDC and 596521-263-R-J1-PDC; two breast carcinomas: 171881-019-R-J1-PDC and 885512-296-R-J2-PDC; and one ovarian carcinoma: 6556581-035-R-J-PDC were obtained from the NCI PDMR, (https://pdmr.cancer.gov). The established cell lines HSSY-2 synovial sarcoma (RRID:CVCL 8719), SYO-1 synovial sarcoma (RRID:CVCL_7146), MPNST malignant peripheral neural sheath tumor were obtained from the Sloan Kettering Institute. The following established cell lines were purchased from the American Type Culture Collection (ATCC, Manassas, VA), Sor the received from the NCI repository:, PANC-1 pancreatic carcinoma (CRL-1469, RRID:CVCL_0480), OVCAR-5 ovarian carcinoma (RRID:CVCL_1628), OVCAR-8 ovarian carcinoma (RRID:CVCL_1629), , MCF-7 breast carcinoma (CRL-12584, RRID:CVCL_0031), MDA-MB-231 breast carcinoma (CRL-12532, RRID:CVCL_0062), NCI-H1876 small cell lung carcinoma (CRL-5902, RRID:CVCL_1503), NCI-H510A small cell lung carcinoma (HTB-184, RRID:CVCL_1565), NCI-H1417 (CRL-5869, RRID:CVCL_1469), and NCI-H196 small cell lung carcinoma (CRL-5823, RRID:CVCL_1509). Dr. Peter Houghton (Greehey Children's Cancer Research Institute, University of Texas Health Science Center, San Antonio, TX) provided Rh-18 rhabdomyosarcoma (RRID:CVCL_1659). Pooled donor human umbilical vein endothelial cells (HUVEC, Lonza, cat. CC-2519) and human mesenchymal stem cells (hMSC, Lonza, cat. PT-2501) were purchased from Lonza (Walkersville, MD).
Cell Culture. […]

For `O=C(c1ccc(F)c(F)c1Nc1ccc(I)cc1F)N1CC(O)([C@@H]2CCCCN2)C1` + CCN1C(C(=O)NC23CCC(C(=O)O)(CC2)CC3)C(c2cccc(Cl)c2F)C2(C(=O)Nc3cc(Cl)ccc32)C12CCCCC2, the IC50 (second compound 0.03 µM) was 467 nM, the IC50 (second compound 0.0949 µM) was 323 nM and the IC50 (second compound 0.3 µM) was 281 nM. The IC50 (second compound 0.949 µM) was 247 nM, the IC50 (second compound 3 µM) was 139 nM and the viability, T/C (second compound 0.03 µM, first compound 0.00316 µM) was 87.4%. It also gave a viability, T/C (second compound 0.03 µM, first compound 0.01 µM) of 65%, a viability, T/C (second compound 0.03 µM, first compound 0.0316 µM) of 72.2% and a viability, T/C (second compound 0.03 µM, first compound 0.1 µM) of 95.9%. For the same compound, the viability, T/C (second compound 0.03 µM, first compound 0.316 µM) was 65.9%, the viability, T/C (second compound 0.03 µM, first compound 1 µM) was 18.9% and the viability, T/C (second compound 0.0949 µM, first compound 0.00316 µM) was 95.4%. The viability, T/C (second compound 0.0949 µM, first compound 0.01 µM) was 78%, the viability, T/C (second compound 0.0949 µM, first compound 0.0316 µM) was 87.6% and the viability, T/C (second compound 0.0949 µM, first compound 0.1 µM) was 84.9%. For the same compound, the viability, T/C (second compound 0.0949 µM, first compound 0.316 µM) was 50.6%, the viability, T/C (second compound 0.0949 µM, first compound 1 µM) was 18.7% and the viability, T/C (second compound 0.3 µM, first compound 0.00316 µM) was 90.9%. The viability, T/C (second compound 0.3 µM, first compound 0.01 µM) was 76%, the viability, T/C (second compound 0.3 µM, first compound 0.0316 µM) was 90.9% and the viability, T/C (second compound 0.3 µM, first compound 0.1 µM) was 91.8%. The viability, T/C (second compound 0.3 µM, first compound 0.316 µM) was 45.7%, the viability, T/C (second compound 0.3 µM, first compound 1 µM) was 17.7% and the viability, T/C (second compound 0.949 µM, first compound 0.00316 µM) was 88.9%. For the same compound, the viability, T/C (second compound 0.949 µM, first compound 0.01 µM) was 93.6%, the viability, T/C (second compound 0.949 µM, first compound 0.0316 µM) was 82.2% and the viability, T/C (second compound 0.949 µM, first compound 0.1 µM) was 81.5%. The viability, T/C (second compound 0.949 µM, first compound 0.316 µM) was 41.4%, the viability, T/C (second compound 0.949 µM, first compound 1 µM) was 17.3% and the viability, T/C (second compound 3 µM, first compound 0.00316 µM) was 77.4%. It also gave a viability, T/C (second compound 3 µM, first compound 0.01 µM) of 82.9%, a viability, T/C (second compound 3 µM, first compound 0.0316 µM) of 68.3% and a viability, T/C (second compound 3 µM, first compound 0.1 µM) of 58.6%. It also gave a viability, T/C (second compound 3 µM, first compound 0.316 µM) of 32.1% and a viability, T/C (second compound 3 µM, first compound 1 µM) of 10.7%.
